# Like-named read-outs stand apart in the source and are kept apart here.
# Legend:
# RPM1-8226 = test: NCI IVCLSP growth inhibition (SRB), RPM1-8226; assay type: cell-based, human; conditions: 48 h drug incubation
# Procedure: (§1) FIG. 1 presents nine compounds that were tested using the National Cancer Institute (NCI) 60 human tumor cell lines. The cells lines, which represent leukemia, melanoma, and cancers of the lung, colon, brain, ovary, breast, prostate, and kidney, are listed in Table 1.
# (§2) Compounds 1-9 were tested according to the NCI Developmental Therapeutics Program (DTP) In Vitro Cell Line Screening Project (IVCLSP). […] Methodology for testing under the IVCLSP is as follows: The human tumor cell lines of the cancer screening panel are grown in RPMI 1640 medium containing 5% fetal bovine serum and 2 mM L-glutamine. […]
# (§3) Following drug addition, the plates are incubated for an additional 48 h at 37° C., 5% CO2, 95% air, and 100% relative humidity. […] Bound stain is subsequently solubilized with 10 mM trizma base, and the absorbance is read on an automated plate reader at a wavelength of 515 nm. […] Using the seven absorbance measurements [time zero, (Tz), control growth, (C), and test growth in the presence of drug at the five concentration levels (Ti)], the percentage growth is calculated at each of the drug concentrations levels. Percentage growth inhibition is calculated as: [(Ti−Tz)/(C−Tz)]×100 for concentrations for which Ti>/=Tz [(Ti−Tz)/Tz]×100 for concentrations for which Ti<Tz.
# (§4) Three dose response parameters are calculated for each experimental agent. […]
# NCI-H226 = test: NCI IVCLSP growth inhibition (SRB), NCI-H226; assay type: cell-based, human; conditions: 48 h drug incubation
# Procedure: as §1, §2, §3, §4
# NCI-H322M = test: NCI IVCLSP growth inhibition (SRB), NCI-H322M; assay type: cell-based, human; conditions: 48 h drug incubation
# Procedure: as §1, §2, §3, §4
# COLO 205 = test: NCI IVCLSP growth inhibition (SRB), COLO 205; assay type: cell-based, human; conditions: 48 h drug incubation
# Procedure: as §1, §2, §3, §4
# SK-MEL-28 = test: NCI IVCLSP growth inhibition (SRB), SK-MEL-28; assay type: cell-based, human; conditions: 48 h drug incubation
# Procedure: as §1, §2, §3, §4
# SK-MEL-5 = test: NCI IVCLSP growth inhibition (SRB), SK-MEL-5; assay type: cell-based, human; conditions: 48 h drug incubation
# Procedure: as §1, §2, §3, §4
# SK-OV-3 = test: NCI IVCLSP growth inhibition (SRB), SK-OV-3; assay type: cell-based, human; conditions: 48 h drug incubation
# Procedure: as §1, §2, §3, §4
# ACHN = test: NCI IVCLSP growth inhibition (SRB), ACHN; assay type: cell-based, human; conditions: 48 h drug incubation
# Procedure: as §1, §2, §3, §4
# CAKI-1 = test: NCI IVCLSP growth inhibition (SRB), CAKI-1; assay type: cell-based, human; conditions: 48 h drug incubation
# Procedure: as §1, §2, §3, §4
# HCC-2998 = test: NCI IVCLSP growth inhibition (SRB), HCC-2998; assay type: cell-based, human; conditions: 48 h drug incubation
# Procedure: as §1, §2, §3, §4
# HCT-15 = test: NCI IVCLSP growth inhibition (SRB), HCT-15; assay type: cell-based, human; conditions: 48 h drug incubation
# Procedure: as §1, §2, §3, §4
# SNB-19 = test: NCI IVCLSP growth inhibition (SRB), SNB-19; assay type: cell-based, human; conditions: 48 h drug incubation
# Procedure: as §1, §2, §3, §4
# SNB-75 = test: NCI IVCLSP growth inhibition (SRB), SNB-75; assay type: cell-based, human; conditions: 48 h drug incubation
# Procedure: as §1, §2, §3, §4
# MALME-3M = test: NCI IVCLSP growth inhibition (SRB), MALME-3M; assay type: cell-based, human; conditions: 48 h drug incubation
# Procedure: as §1, §2, §3, §4
# M14 = test: NCI IVCLSP growth inhibition (SRB), M14; assay type: cell-based, human; conditions: 48 h drug incubation
# Procedure: as §1, §2, §3, §4
# TKIO = test: NCI IVCLSP growth inhibition (SRB), TKIO; assay type: cell-based, human; conditions: 48 h drug incubation
# Procedure: as §1, §2, §3, §4
# PC-3 = test: NCI IVCLSP growth inhibition (SRB), PC-3; assay type: cell-based, human; conditions: 48 h drug incubation
# Procedure: as §1, §2, §3, §4
# NCI/ADR-RES = test: NCI IVCLSP growth inhibition (SRB), NCI/ADR-RES; assay type: cell-based, human; conditions: 48 h drug incubation
# Procedure: as §1, §2, §3, §4
# HS 578T = test: NCI IVCLSP growth inhibition (SRB), HS 578T; assay type: cell-based, human; conditions: 48 h drug incubation
# Procedure: as §1, §2, §3, §4
# p53 = test: Western blot, p53 expression in MCF-7 cells; assay type: cell-based, human; conditions: 24 hours, various concentrations
# Procedure: To further characterize the cell cycle effects of Compound 1 on human tumor cells, MCF-7 cells were treated for 24 hours with various concentrations of Compound 1, vinblastine, or TAXOL (paclitaxel). Cells were then harvested, lysed, and analyzed for levels of expression of p53 and WAF1 by Western Blot analyses. […] Compound 1 is identified as “149” in these figures. […] None of these treatments affected the expression of bcl-2 or P-tubulin in the MCF-7 cells.
# MCF-7/VP cells = test: Cytotoxicity, MCF-7/VP cells that overexpress MRP1; conditions: for IC50: mean ± SEM for 3 experiments
# Source text: These cell lines are resistant to anticancer drugs due to overexpression of the transport proteins P-glycoprotein or MRP1.
smiles,measurement,setting,value
COc1cc(CCc2cn(Cc3ccccc3)c3nc(N)nc(C)c23)cc(OC)c1OC [Compound 1],GI50,RPM1-8226,439 nM
same,GI50,NCI-H226,195 nM
same,GI50,NCI-H322M,581 nM
same,GI50,COLO 205,190 nM
same,GI50,SK-MEL-28,> 1000 nM
same,GI50,SK-MEL-5,61.1 nM
same,GI50,SK-OV-3,506 nM
same,GI50,ACHN,728 nM
same,GI50,CAKI-1,366 nM
same,GI50,HCC-2998,317 nM
same,GI50,HCT-15,127 nM
same,GI50,SNB-19,273 nM
same,GI50,SNB-75,358 nM
same,GI50,MALME-3M,283 nM
same,GI50,M14,77 nM
same,GI50,TKIO,961 nM
same,GI50,PC-3,47.9 nM
same,GI50,NCI/ADR-RES,145 nM
same,GI50,HS 578T,283 nM
same,level of expression of p53 (in words),p53,induced the expression
same,Resistance (MCF-7/VP relative to MCF-7),MCF-7/VP cells; MRP1,0.6
same,IC50,"MCF-7/VP cells; read-out: Cytotoxicity IC50, MCF-7/VP",250 ± 160 nM
same,IC50,"MCF-7/VP cells; read-out: drug sensitivity (IC50), MCF-7/VP, Table 4, MRP1 overexpressing",180 ± 10 nM

# Source: patent publication US8501752B2, “Methods for treating cancer and other pathological proliferating disorders by inhibiting mitosis using pyrrolo[2,3-d]pyrimidines” (Duquesne University of the Holy Ghost, priority 2005, dated 2013)
